The target in data set [1] is T1, CFTR-mediated short-circuit current in F508del/MF-HBE cells (Homo sapiens, UniProt P13569, DEL508-508).
T1 construct: endogenous in cells; host or cells: primary human bronchial epithelial cells from CF subjects (F508del/MF)
The data set is described as follows: HBE2 assay: Ussing chamber assay of CFTR-mediated short-circuit currents. It counts as cell-based. To be noted: single fixed concentration 3 μM in combination with 44 nM (6R,12R)-17-amino-12-methyl-6,15-bis(trifluoromethyl)-13,19-dioxa-3,4,18-triazatricyclo[12.3.1.12,5]nonadeca-1(18),2,4,14,16-pentaen-6-ol, 20% human serum. The protocol:
Ussing chamber experiments were performed using human bronchial epithelial (HBE) cells derived from CF subjects heterozygous for F508del and a minimal function CFTR mutation (F508del/MF-HBE) and cultured as previously described (Neuberger T, Burton B, Clark H, Van Goor F Methods Mol Biol 2011:741:39-54). After four days the apical media was removed, and the cells were grown at an air liquid interface for >14 days prior to use.
To isolate the CFTR-mediated short-circuit (ISC) current, F508del/MF-HBE grown on Costar® Snapwell™ cell culture inserts were mounted in an Ussing chamber and the transepithelial ISC was measured under voltage-clamp recording conditions (Vhold=0 mV) at 37° C. The basolateral solution contained (in mM) 145 NaCl, 0.83K2HPO4, 3.3 KH2PO4, 1.2 MgCl2, 1.2 CaCl2), 10 Glucose, 10 HEPES (pH adjusted to 7.4 with NaOH) and the apical solution contained (in mM) 145 NaGluconate, 1.2 MgCl2, 1.2 CaCl2), 10 glucose, 10 HEPES (pH adjusted to 7.4 with NaOH) and 30 μM amiloride to block the epithelial sodium channel. […] The CFTR-mediated ISC (μA/cm^2) for each condition was determined from the peak forskolin response to the steady-state current following inhibition.
The activity of the CFTR corrector compounds on the CFTR-mediated ISC was determined in Ussing chamber studies as described above. […]

For data set [2] the following is noted: amide bond, 13-membered ring, HATU/DIEA, 25.0 °C.
Data set [3] addresses T2, CFTR-mediated chloride transport in human intestinal epithelial enteroid cells (Homo sapiens, UniProt P13569). The data set is described as follows: Membrane potential dye, Enteroid Assay B. It counts as cell-based. The protocol:
(§1) Base medium (ADF+++) consisted of Advanced DMEM/Ham's F12, 2 mM Glutamax, 10 mM HEPES, […] penicillin/streptomycin.
(§2) Intestinal enteroid maintenance medium (IEMM) consisted of ADF+++, 1×B27 supplement, 1×N2 supplement, 1.25 mM N-acetyl cysteine, 10 mM Nicotinamide, 50 ng/mL hEGF, 10 nM Gastrin, 1 μg/mL hR-spondin-1, 100 ng/mL hNoggin, TGF-b type 1 inhibitor A-83-01, 100 μg/mL Primocin, 10 μM P38 MAPK inhibitor SB202190.
(§3) Bath 1 Buffer consisted of 1 mM MgCl2, 160 mM NaCl, 4.5 mM KCl, 10 mM HEPES, 10 mM Glucose, 2 mM CaCl2).
(§4) Chloride Free Buffer consisted of 1 mM Magnesium Gluconate, 2 mM Calcium Gluconate, 4.5 mM Potassium Gluconate, 160 mM Sodium Gluconate, 10 mM HEPES, 10 mM Glucose.
(§5) BathI Dye Solution consisted of Bath 1 Buffer, 0.04% Pluronic F127, 20 μM Methyl Oxonol, 30 μM CaCCinh-A01, 30 μM Chicago Sky Blue.
(§6) Chloride Free Dye Solution consisted of Chloride Free Buffer, 0.04% Pluronic F127, 20 μM Methyl Oxonol, 30 μM CaCCinh-A01, 30 μM Chicago Sky Blue.
(§7) Chloride Free Dye Stimulation Solution consisted of Chloride Free Dye Solution, 10 μM forskolin, 100 μM IBMX, and 300 nM Compound III.
(§8) Human intestinal epithelial enteroid cells were obtained from the Hubrecht Institute for Developmental Biology and Stem Cell Research, Utrecht, The Netherlands and expanded in T-Flasks as previously described (Dekkers J F, Wiegerinck C L, de Jonge H R, Bronsveld I, Janssens H M, de Winter-de Groot K M, Brandsma A M, de Jong N W M, Bijvelds M J C, Scholte B J, Nieuwenhuis E E S, van den Brink S, Clevers H, van der Ent C K, Middendorp S and M Beekman J M. A functional CFTR assay using primary cystic fibrosis intestinal organoids. Nat Med. 2013 July; 19(7):939-45.).
(§9) Cells were recovered in cell recovery solution, collected by centrifugation at 650 rpm for 5 minutes at 4° C., resuspended in TrypLE and incubated for 5 minutes at 37° C. Cells were then collected by centrifugation at 650 rpm for 5 minutes at 4° C. and resuspended in IEMM containing 10 μM ROCK inhibitor (RI). The cell suspension was passed through a 40 μm cell strainer and resuspended at 1×10^6 cells/mL in IEMM containing 10 μM RI. Cells were seeded at 5000 cells/well into multi-well plates and incubated for overnight at 37° C., 95% humidity and 5% CO2 prior to assay.
(§10) Enteroid cells were incubated with test compound in IEMM for 18-24 hours at 37° C., 95% humidity, and 5% C02. […] Briefly, cells were washed 5 times in Bath 1 Buffer. Bath 1 Dye Solution was added and the cells were incubated for 25 minutes at room temperature. Following dye incubation, cells were washed 3 times in Chloride Free Dye Solution. Chloride transport was initiated by addition of Chloride Free Dye Stimulation Solution and the fluorescence signal was read for 15 minutes. […] Chloride transport was then expressed as a percentage of the chloride transport following treatment with 1 μM (14S)-8-[3-(2-{Dispiro[2.0.2.1]heptan-7-yl}ethoxy)-1H-pyrazol-1-yl]-12,12-dimethyl-2λ^6-thia-3,9,11,18,23-pentaazatetracyclo[17.3.1.111,14.05,10]tetracosa-1(22),5,7,9,19(23),20-hexaene-2,2,4-trione, 3 μM (R)-1-(2,2-difluorobenzo[d][1,3]dioxol-5-yl)-N-(1-(2,3-dihydroxypropyl)-6-fluoro-2-(1-hydroxy-2-methylpropan-2-yl)-1H-indol-5-yl)cyclopropanecarboxamide and 300 nM acute N-[2,4-bis(1,1-dimethylethyl)-5-hydroxyphenyl]-1,4-dihydro-4-oxoquinoline-3-carboxamide triple combination control (% Activity).

The next data set concerns the target T3, F508del in NIH 3T3 cells (Homo sapiens, UniProt P13569, DEL508-508).
T3 construct: expressed in transfected cells
As to the kind of experiment: 3T3 assay: membrane potential optical assay for F508del correction. It counts as cell-based, mouse. Particulars: F508del NIH 3T3 cells. From the text:
The assay utilizes fluorescent voltage sensing dyes to measure changes in membrane potential using a fluorescent plate reader (e.g., FLIPR III, Molecular Devices, Inc.) as a readout for increase in functional F508del in NIH 3T3 cells. The driving force for the response is the creation of a chloride ion gradient in conjunction with channel activation by a single liquid addition step after the cells have previously been treated with compounds and subsequently loaded with a voltage sensing dye.
To identify correctors of F508del, a single-addition HTS assay format was developed. This HTS assay utilizes fluorescent voltage sensing dyes to measure changes in membrane potential on the FLIPR III as a measurement for increase in gating (conductance) of F508del in F508del NIH 3T3 cells. The F508del NIH 3T3 cell cultures were incubated with the corrector compounds at a range of concentrations for 18-24 hours at 37° C., and subsequently loaded with a redistribution dye. The driving force for the response is a Cl^− ion gradient in conjunction with channel activation with forskolin in a single liquid addition step using a fluorescent plate reader such as FLIPR III.
Bath Solution #1: (in mM) NaCl 160, KCl 4.5, CaCl2) 2, MgCl2 1, HEPES 10, pH 7.4 with NaOH.
Chloride-free bath solution: Chloride salts in Bath Solution #1 (above) are substituted with gluconate salts.
NIH3T3 mouse fibroblasts stably expressing F508del are used for optical measurements of membrane potential. The cells are maintained at 37° C. in 5% CO2 and 90% humidity in Dulbecco's modified Eagle's medium supplemented with 2 mM glutamine, 10% fetal bovine serum, 1×NEAA, b-ME, 1×pen/strep, and 25 mM HEPES in 175 cm^2 culture flasks. For all optical assays, the cells were seeded at ˜20,000/well in 384-well Matrigel-coated plates. For the correction assays, the cells are cultured at 37° C. with and without compounds for 16-24 hours.

Data set [4] concerns the target T2, CFTR-mediated chloride transport in human intestinal epithelial enteroid cells. As to the kind of experiment: Membrane potential dye, Enteroid Assay A. It counts as cell-based. The procedure:
as §1, §2, §3, §4, §5, §6, §7, §8, §9
as §10, with “95% humidity” for “95% humidity,”, “was added,” for “was added”, “with 3” for “with 1”, “μM (S)—N-((6-aminopyridin-2-yl)sulfonyl)-6-(3-fluoro-5-isobutoxyphenyl)-2-(2,2,4-trimethylpyrrolidin-1-yl)nicotinamide,” for “μM (14S)-8-[3-(2-{Dispiro[2.0.2.1]heptan-7-yl}ethoxy)-1H-pyrazol-1-yl]-12,12-dimethyl-2λ^6-thia-3,9,11,18,23-pentaazatetracyclo[17.3.1.111,14.05,10]tetracosa-1(22),5,7,9,19(23),20-hexaene-2,2,4-trione,”

SMILES strings stand for the structures. Like-named read-outs stand apart in the source and are kept apart here.

This note sets out measurements from US12612416B2, “Modulators of cystic fibrosis transmembrane conductance regulator” (VERTEX PHARMACEUTICALS INCORPORATED, priority 2020, dated 2026).

T2 sequence (P13569 with tags, fused parts or gaps DEL508-508): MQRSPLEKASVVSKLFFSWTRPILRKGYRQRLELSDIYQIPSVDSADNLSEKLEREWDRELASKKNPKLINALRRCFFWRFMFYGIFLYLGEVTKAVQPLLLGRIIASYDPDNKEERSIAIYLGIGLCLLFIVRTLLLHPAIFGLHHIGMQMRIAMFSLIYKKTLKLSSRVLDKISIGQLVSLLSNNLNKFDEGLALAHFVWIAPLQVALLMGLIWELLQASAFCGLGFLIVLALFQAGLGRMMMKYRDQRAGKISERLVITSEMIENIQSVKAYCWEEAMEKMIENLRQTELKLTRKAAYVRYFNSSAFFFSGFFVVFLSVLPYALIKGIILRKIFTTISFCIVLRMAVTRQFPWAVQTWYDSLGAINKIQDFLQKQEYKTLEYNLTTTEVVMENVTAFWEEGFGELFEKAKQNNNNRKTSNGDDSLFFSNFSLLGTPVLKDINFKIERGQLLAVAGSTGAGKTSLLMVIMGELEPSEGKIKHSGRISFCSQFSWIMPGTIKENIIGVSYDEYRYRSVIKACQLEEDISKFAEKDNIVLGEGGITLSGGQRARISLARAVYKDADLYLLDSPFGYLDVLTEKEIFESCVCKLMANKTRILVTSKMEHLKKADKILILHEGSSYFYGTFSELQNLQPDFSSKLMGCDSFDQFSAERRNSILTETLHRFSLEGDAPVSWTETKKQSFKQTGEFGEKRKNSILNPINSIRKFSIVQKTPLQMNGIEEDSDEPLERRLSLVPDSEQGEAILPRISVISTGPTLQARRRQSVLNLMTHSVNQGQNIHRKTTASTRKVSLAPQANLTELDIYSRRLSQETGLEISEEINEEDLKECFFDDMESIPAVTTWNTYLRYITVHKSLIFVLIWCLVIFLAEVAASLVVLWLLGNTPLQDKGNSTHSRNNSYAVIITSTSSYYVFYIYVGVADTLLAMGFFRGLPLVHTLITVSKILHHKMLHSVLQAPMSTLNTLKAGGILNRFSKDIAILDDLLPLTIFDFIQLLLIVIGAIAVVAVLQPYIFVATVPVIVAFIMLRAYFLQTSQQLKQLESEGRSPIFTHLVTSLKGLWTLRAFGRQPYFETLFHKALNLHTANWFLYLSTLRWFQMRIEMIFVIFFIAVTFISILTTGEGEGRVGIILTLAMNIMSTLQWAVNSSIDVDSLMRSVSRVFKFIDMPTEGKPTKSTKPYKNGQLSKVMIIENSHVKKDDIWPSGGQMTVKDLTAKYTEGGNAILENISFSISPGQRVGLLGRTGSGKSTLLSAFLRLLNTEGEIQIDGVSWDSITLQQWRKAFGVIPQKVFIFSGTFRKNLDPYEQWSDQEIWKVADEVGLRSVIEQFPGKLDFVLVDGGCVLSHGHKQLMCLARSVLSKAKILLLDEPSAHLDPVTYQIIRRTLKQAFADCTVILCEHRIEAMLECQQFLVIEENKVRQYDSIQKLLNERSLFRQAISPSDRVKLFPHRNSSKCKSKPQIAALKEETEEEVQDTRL
T3 sequence (P13569 with tags, fused parts or gaps DEL508-508): as above
T1 sequence (P13569 with tags, fused parts or gaps DEL508-508): as above

`Cc1cccc(C)c1-c1cc2nc(n1)NS(=O)(=O)c1cccc(c1)C(=O)N(C1CC3(CC(NC(=O)OC(C)C)C3)C1)[C@H](CC(C)(C)C)CC2` (some centres unmarked) [Compound 69]: the “HBE2 Activity at 3 μM” value in data set [1] is “+++ (+++ is >60%)”.

Take `Cc1cccc(C)c1-c1cc2nc(n1)NS(=O)(=O)c1cccc(c1)C(=O)N(C1CC3(CCN(C(=O)OC(C)(C)C)CC3)C1)[C@H](CC(C)C)CC2`: in data set [2] (from Cc1cccc(C)c1-c1cc(CC[C@@H](CC(C)C)NC2CC3(CCN(C(=O)OC(C)(C)C)CC3)C2)nc(NS(=O)(=O)c2cccc(C(=O)O)c2)n1, NMP, 97.4 mM, 2.0 h), the ring closure, isolated yield was determined as 68%.

The compound `Cc1cccc(C)c1-c1cc2nc(n1)NS(=O)(=O)c1cccc(c1)C(=O)NCCC2c1ccc(C(C)(C)C)cc1` (centres unmarked) [Compound 5, 9-(4-tert-Butylphenyl)-6-(2,6-dimethylphenyl)-2,2-dioxo-2 λ6-thia-3,5,12,19-tetrazatricyclo[12.3.1.14,8]nonadeca-1(18),4(19),5,7,14,16-hexaen-13-one] had a ring closure, isolated yield in data set [2] (from Cc1cccc(C)c1-c1cc(C(CCN)c2ccc(C(C)(C)C)cc2)nc(NS(=O)(=O)c2cccc(C(=O)O)c2)n1, DMF, 11.6 mM, 21.0 h) of 40%. Also, in data set [3] (% of chloride transport of triple combination control: 1 μM (14S)-8-[3-(2-{Dispiro[2.0.2.1]heptan-7-yl}ethoxy)-1H-pyrazol-1-yl]-12,12-dimethyl-...-2,2,4-trione, 3 μM tezacaftor, 300 nM acute ivacaftor), the “Ent. B Max Activity” value was “+++ (+++ is >60%)”. Besides, the concentration for a half-maximal effect (EC50) (in general, the concentration needed to bring the measured effect to its halfway point) in data set [3] (enteroid cells, 18-24 hours incubation, acute 10 μM forskolin and 300 nM ivacaftor, read-out: Ent. B EC50) was below 1000 nM.

On to `Cc1cccc(C)c1-c1cc2nc(n1)NS(=O)(=O)c1cccc(c1)C(=O)N(C1CC3(CC(NC(=O)OC(C)(C)C)C3)C1)[C@H](CC(C)C)CC2` (some centres unmarked), for which the ring closure, isolated yield in data set [2] (from Cc1cccc(C)c1-c1cc(CC[C@@H](CC(C)C)NC2CC3(CC(NC(=O)OC(C)(C)C)C3)C2)nc(NS(=O)(=O)c2cccc(C(=O)O)c2)n1, NMP, 27.3 mM, 2.0 h) amounted to 88%.

Take `Cc1cccc(C)c1-c1cc2nc(n1)NS(=O)(=O)c1cccc(c1)C(=O)O[C@H](c1ccc(C(C)(C)C)cn1)[C@@H](CC(C)C)N2C` [Compound 35]: the EC50 at F508del in NIH 3T3 cells (compound incubation 18-24 hours at 37° C., forskolin activation) is below 1000 nM; in data set [4] (enteroid cells, 18-24 hours incubation, acute 10 μM forskolin and 300 nM ivacaftor, read-out: Ent. A EC50), 1000 to 3000 nM. Also, at F508del in NIH 3T3 cells (efficacy compared to lumacaftor in combination with acutely added 300 nM Ivacaftor), the “3T3 Max Activity” value was “+++ (+++ is >60%)”. The “Ent. A Max Activity” value in data set [4] (% of chloride transport of triple combination control: 3 μM (S)-N-((6-aminopyridin-2-yl)sulfonyl)-6-(3-fluoro-5-isobutoxyphenyl)-2-(2,2,4-trimethylpyrrolidin-1-yl)nicotinamide, 3 μM tezacaftor, 300 nM acute ivacaftor) is on record as “++ (++ is 30-60%)”.

`COC(=O)CCCN1CCC(C)c2cc(-c3c(C)cccc3C)nc(n2)NS(=O)(=O)c2cccc(c2)C1=O` (centres unmarked) had a ring closure, isolated yield in data set [2] (from COC(=O)CCCNCCC(C)c1cc(-c2c(C)cccc2C)nc(NS(=O)(=O)c2cccc(C(=O)O)c2)n1, NMP, 22.1 mM, 15.0 h) of 90%.
